1 compound from US8853244B2, “Thiophene-carboxamides useful as inhibitors of protein kinases” (Vertex Pharmaceuticals Incorporated, priority 2006, dated 2014) can be followed below.

In the experiment the target is T1, Plk1 (Homo sapiens, UniProt P53350).
T1 construct: in the presence of 15 nM Plk1 (A20-K338)
In words: Plk1 inhibition assay (radioactive-phosphate incorporation). In kind it is biochemical. The settings on record: Ki(app). As to the method:
The compounds of the present invention are evaluated as inhibitors of human PLK kinase using the following assays.
Compounds were screened for their ability to inhibit Plk1 using a radioactive-phosphate incorporation assay. Assays were carried out in a mixture of 25 mM HEPES (pH 7.5), 10 mM MgCl2, and 1 mM DTT. Final substrate concentrations were 50 μM [γ-33P]ATP (136 mCi 33P ATP/mmol ATP, Amersham Pharmacia Biotech/Sigma Chemicals) and 10 μM peptide (SAM68 protein Δ332-443). Assays were carried out at 25° C. in the presence of 15 nM Plk1 (A20-K338). An assay stock buffer solution was prepared containing all of the reagents listed above, with the exception of ATP and the test compound of interest. 30 μL of the stock solution was placed in a 96 well plate followed by addition of 2 μL of DMSO stock containing serial dilutions of the test compound (typically starting from a final concentration of 10 μM with 2-fold serial dilutions) in duplicate (final DMSO concentration 5%). The plate was pre-incubated for 10 minutes at 25° C. and the reaction initiated by addition of 8 μL [γ-33P]ATP (final concentration 50 μM). […]
After removing mean background values for all of the data points, Ki(app) data were calculated from non-linear regression analysis of the initial rate data using the Prism software package (GraphPad Prism version 3.0cx for Macintosh, GraphPad Software, San Diego Calif., USA). […]

Each structure is given as a SMILES string. Bounds are passed on as bounds.

T1 sequence (P53350 20-338): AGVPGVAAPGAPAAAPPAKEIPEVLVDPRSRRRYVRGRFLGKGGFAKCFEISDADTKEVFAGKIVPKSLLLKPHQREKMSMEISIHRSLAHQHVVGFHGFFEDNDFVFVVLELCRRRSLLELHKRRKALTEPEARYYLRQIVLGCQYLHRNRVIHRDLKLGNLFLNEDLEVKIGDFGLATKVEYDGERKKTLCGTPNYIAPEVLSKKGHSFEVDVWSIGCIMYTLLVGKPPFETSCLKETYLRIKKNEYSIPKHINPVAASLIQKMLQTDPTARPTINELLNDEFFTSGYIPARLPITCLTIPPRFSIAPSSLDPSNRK

For the compound `CC(Oc1cc(-c2cc(-c3cccc(Cl)c3)cnc2N)sc1C(N)=O)c1ccccc1Cl` (stereo not shown) [I-3, 5-[2-Amino-5-(3-chloro-phenyl)-pyridin-3-yl]-3-[1-(2-chloro-phenyl)-ethoxy]-thiophene-2-carboxylic acid amide], the Ki is below 10 nM.
